Patent publication US20200261418A1, “HDAC INHIBITOR IN COMBINATION WITH IMMUNE CHECKPOINT MODULATOR FOR CANCER THERAPY” (4SC AG, priority 2017, published 2020)
Like-named read-outs stand apart in the source and are kept apart here.

What was measured:
[1] = Handling of 4SC-202 tosylate calibration solutions (light stability); assay type: physicochemical; details: solutions in dimethylsulfoxide and dimethylsulfoxide/acetonitrile
Procedure: For the preparation of calibration samples, 4SC-202 tosylate salt was dissolved in dimethylsulfoxide to a concentration of 1.00 mg/mL free base. For the preparation of QC samples, a second solution with a concentration of 1.00 mg/mL free base was used. Working solutions were prepared by serial dilutions in a mixture of dimethylsulfoxide/acetonitrile (50/50, v/v) to concentrations 50 times higher than the corresponding concentrations in matrix. The concentrations were calculated under consideration of purity and salt factor where applicable. All concentrations are expressed as those of the free base. […] The concentrations of the calibration are (ng/mL): 1.00, 2.00, 5.00, 20.00, 100, 500, 750, 1000. The concentrations of the QC are (ng/mL): 13.00, 20.00, 750 For preparation of the CAL and QC, the matrix was fortified with the working solutions using a ratio of 98/2 (v/v). For the preparation of the internal standard solution, 4SC-201-d6 mesylate salt was dissolved in dimethylsulfoxide to a concentration of 1.00 mg/mL of the free base. Further dilutions to a final concentration of 100 ng/mL were done in acetonitrile. The concentration was calculated under consideration of purity and salt factor.

[2] = tested on: C38 tumor fragments; assay: Preclinical murine in vivo tumor model, C38; design: species or system female C57Bl/6 mice; details: C38 model (FIG. 1); anti-PD1 10 mg/kg IP; 4SC-202 at 20 mg/kg PO alone or combined
Procedure: (§1) In vivo murine tumor models were conducted with a combination of 4SC-202 and murine anti-PD-1 and anti-PD-L1 antibodies, respectively. 1×10^6 CT26 cells or 30-50 mg C38 tumor fragments (both […] colon carcinoma cell lines) were subcutaneous implantation into the right flank of female C57Bl/6 (C38 tumor fragments) or Balb/c (CT26 cells) mice, respectively, at day 0 of the experiment.
Protocol C38: At D10, when tumors reached a mean volume of 142±27 mm^3, 160 mice out of 224, were randomized according to their individual tumor volume into 8 groups of 20 mice each. […]
(§2) Monitoring of mice body weights and tumor volume twice a week. […] Tumor width and length were measured using a digital caliper twice a week and estimated tumor volumes were calculated from measured tumor length and width using the formula Estimated tumor volume=width^2×length/2. […]

[3] = tested on: CT26 cells; assay: Preclinical murine in vivo tumor model, CT26; design: species or system female Balb/c mice; details: CT26 model (FIG. 2); anti-PD-L1 10 mg/kg IP; 4SC-202 at 20 mg/kg PO alone or combined
Procedure: as §1
Protocol CT26: At D7, when tumors reached a mean volume of 73±21 mm^3, 80 mice out of 104, were randomized according to their individual tumor volume into 4 groups of 20 mice each. […]
as §2

[4] = Food effect dog study, plasma pharmacokinetics; assay type: in vivo, dogs (male Beagle); details: approx. 60 mg/kg oral tablets; for AUC: male, Beagle, dog, plasma, po, 60 mg/kg, three dogs, read-out: AUC geometric mean
Procedure: A pharmacokinetic profile for 4SC-202 was determined in an animal study comprising three dogs (male Beagle). To allow for better comparison of the fasted/fed values and eliminate inter-subject variability, each dog first received a first dose of 4SC-202 in the fasted state, and after a wash-out phase of one week, received another dose of 4SC-202 in the fed state. After each respective dose, the plasma pK of 4SC-202 was determined
Before the first dosing, the dogs were fasted overnight and food was returned after the 4 h post-dose blood sampling collections. On each dosing day, the dogs received a single intramuscular injection of freshly prepared Pentagastrin (6 μg/kg and 0.05 mL/kg) 30-33 min prior to oral treatment with approx. 60 mg/kg 4SC-202 (tablet as detailed herein below); for fed animals, these steps were omitted and the dogs received their usual meal approx. 30 min prior to dosing. The number of tablets (4SC-202 tosylate corresponding to 100 mg 4SC-202 free base per tablet) was rounded to the nearest whole tablet based on dose and animal pre-dose body weight. Immediately after dosing the animals received 20 mL of water after oral gavage or were offered 20 mL of water to assist swallowing of the tablets.
Blood samples (1 ml per sample in K2EDTA as anticoagulant) were collected by venipuncture of a peripheral vein and placed on wet ice immediately after collection until centrifugation as 2000*g for 10 min at 2-8° C. to isolate plasma. […]
The concentration of 4SC-202 (free base) in plasma samples was determined by first precipitating the samples with three volume equivalents of acetonitrile containing the internal standard. […]
For the preparation of calibration samples, 4SC-202 tosylate salt was dissolved in dimethylsulfoxide to a concentration of 1.00 mg/mL free base. […] The concentrations were calculated under consideration of purity and salt factor where applicable. All concentrations are expressed as those of the free base. […] The concentration was calculated under consideration of purity and salt factor. […]

[5] = tested on: heavily pre-treated patients with different types of blood cancer; details: cited from earlier work

Row | light stability of solutions [1] | AUC increase of the fed state over the fasted state ([4]; dogs) | AUC ([4]; fasted) [ng·h/mL] | AUC ([4]; fed) [ng·h/mL] | SMILES | anti-tumor activity compared to mice treated with vehicle [2] | anti-tumor activity compared to mice treated with vehicle [3] | tolerability (adverse events) ([5]; 24 heavily pre-treated patients, few and/or manageable adverse events) | disease control, share of patients ([5]; 24 patients) [%] | long-term stabilization, share of patients ([5]; 24 patients) [%] | complete remission, duration ([5]; one complete remission among 24 patients) [months] | partial responder, duration ([5]; one partial responder among 24 patients) [months]
1 | light instability |  |  |  | Cc1ccc(S(=O)(=O)O)cc1.Cn1cc(-c2ccc(S(=O)(=O)n3ccc(/C=C/C(=O)Nc4ccccc4N)c3)cc2)cn1 [4SC-202 tosylate salt] |  |  |  |  |  |  | 
2 |  | about 3.5 fold | 3980 | 13900 | Cn1cc(-c2ccc(S(=O)(=O)n3ccc(/C=C/C(=O)Nc4ccccc4N)c3)cc2)cn1 [Compound 4SC-202, (E)-N-(2-aminophenyl)-3-(1-((4-(1-methyl-1H-pyrazol-4-yl)phenyl)sulfonyl)-1H-pyrrol-3-yl)acrylamide] | increase of the antitumor activity | increase of the antitumor activity | well tolerated | 83 | 50 | 28 | 8
